According to PubChem BioAssay AID504542 (Sanford-Burnham Center for Chemical Genomics, 2011):
Activity calls are given as the source filed them. No rule for the calls is given here.

The compounds below were run on S. cerevisiae TIM10 counterscreen strain, luminescence (assay: inhibitors of TIM10 yeast strain luminescence, dose response, counter-screen for tim10-1 inhibitor project, S. cerevisiae, uHTS hits (AID 504542)).

Compound	IC50
CCOC(=O)/C=C/C(=O)OCC(=O)Nc1ccc([N+](=O)[O-])cc1	3.98 µM
Cc1ccc(NC(=O)c2ccc(Cl)c(N3C(=O)C=CC3=O)c2)cc1	4.36 µM
Fc1ccccc1CNC(=S)Nc1cccc(C(F)(F)F)c1	8.28 µM
N/C(=N\OC(=O)CCC1CCCC1)c1cccc([N+](=O)[O-])c1	8.32 µM
O=c1c2ccccc2nc(/C=C/c2ccc([N+](=O)[O-])o2)n1CCCO	4.49 µM
S=C(NCCCc1ccccc1)Nc1ccc(Cl)cc1	3.88 µM
CC(C)NC(=S)N/N=C1\CCCCc2ccccc21	3.66 µM
N/C(=N\OC(=O)CCCc1ccccc1)c1ccccc1Cl	7.22 µM
CCCn1c(CC)nc([N+](=O)[O-])c1S(=O)(=O)c1ccccc1	2.72 µM
CC(C)c1nnc(NC(=O)CCS(=O)(=O)c2nc(-c3cccs3)cc(C(F)(F)F)n2)s1	4.84 µM
Cc1ccc(/C(N)=N/OC(=O)C(C)c2ccc([N+](=O)[O-])cc2)cc1 (stereo unspecified)	22 µM
CCOc1ccc(-n2cc(-c3ccccc3)c3c(=O)[nH]cnc32)cc1	5.89 µM
CCCCNC(=S)Nc1ccc(C(F)(F)F)cc1	9.88 µM
CC[C@@H]1CC=C[C@H]2[C@H]1C(=O)N(Cc1ccccc1)[C@H]2c1ccoc1	2.5 µM
COc1ccccc1N1C(=O)CC(Sc2n[nH]c(-c3cccc(C)c3)n2)C1=O (stereo unspecified)	3.62 µM
c1ccc(Nc2cccc(Nc3ccccc3)n2)cc1	5.97 µM
Cc1cccc(NC(=O)c2ccc([N+](=O)[O-])s2)n1	1.39 µM
Cc1ccccc1OCC(=O)Nc1ccc(S(=O)(=O)N2CCCC2)cc1	5.36 µM
NC(=NCCCCCCN=C(N)/N=C(\N)Nc1ccc(Cl)cc1)/N=C(\N)Nc1ccc(Cl)cc1	> 100 µM (inactive)
COc1ccc(NC2CCN(C3CC(=O)N(c4ccc(F)c(Cl)c4)C3=O)CC2)cc1 (stereo unspecified)	2.91 µM
C[C@@H]1CC=C[C@H]2[C@H]1C(=O)N(Cc1ccccc1)[C@H]2c1ccc(-c2ccoc2)cc1F	7.07 µM
CC(C)(C)c1ccc(CN2N=Nc3ccccc3S2(=O)=O)cc1	2.99 µM
COc1ccc2sc(N(CCCN(C)C)C(=O)c3ccc(S(=O)(=O)N4CCCc5ccccc54)cc3)nc2c1	8.76 µM
COc1ccc(-c2cc(C3CC3)nc3sc(C#N)c(N)c23)cc1	4.46 µM

Compound	IC50
O=C(O)/C=C/C(=O)c1ccc2c(c1)CCc1ccccc1-2	3.32 µM
Cc1ccc(S(=O)(=O)c2nc(S(C)(=O)=O)sc2N2CCCCC2C)cc1 (stereo unspecified)	2.35 µM
COc1ccc(/C=C/C(=O)c2ccccc2)cc1Cn1nnc2ccccc21	3.86 µM
Cc1cc(/C=C\c2ccc3cc(N(C)C)ccc3[n+]2C)c(C)n1-c1ccccc1	3.92 µM
COc1ccc(-c2nncnn2)cc1	3.43 µM
O=C(Nc1cccnc1)c1cn(-c2ccccc2)nc1-c1cccs1	8.73 µM
Cc1cc(C)cc(N2C(=O)CC(Sc3nnnn3-c3ccccc3)C2=O)c1 (stereo unspecified)	0.69 µM
Fc1ccc(CNC(=S)Nc2cccc(C(F)(F)F)c2)cc1	8.8 µM
CCCCCCCCCCOC(=O)Cn1c(COc2ccccc2OC)[n+](C)c2ccccc21	8.06 µM
CCOC(=O)c1cc(-c2cccs2)nc2c1c(C)nn2-c1ccccn1	8.92 µM
O=C(Nc1cccc(N2C(=O)C=CC2=O)c1)c1cccs1	2.61 µM
Cc1ccc(NC2=C/C(=N\S(=O)(=O)c3cccs3)c3ccccc3C2=O)c(C)c1	3.94 µM
CC(C)C(c1nnnn1C1CCCC1)N1CCCc2ccccc21 (stereo unspecified)	5.94 µM
COc1ccc(C(=O)O/N=C(\N)c2ccc(Br)cc2)cc1	7.29 µM
O=C1CC(Sc2nnnn2-c2ccccc2)C(=O)N1c1cccc(Cl)c1 (stereo unspecified)	1.72 µM
N/C(Cc1ccc(Cl)cc1Cl)=N\OC(=O)Cc1ccc(Cl)cc1	0.74 µM
CCCCc1ccc(NC(=S)Nc2ccc(Nc3ccc(OC)cc3)cc2)cc1	12.4 µM
O=c1c2ccccc2[se]n1-c1ccccc1	0.58 µM
CCCCCCC(=O)N(O)C1CC(=O)N(c2ccc(C)cc2)C1=O (stereo unspecified)	4.38 µM
Cc1ccccc1/C=C/C(=O)c1ccc([N+](=O)[O-])o1	0.66 µM
N/C(=N\OC(=O)CCC1CCCC1)c1ccccc1	16.8 µM
COC(=O)C(C(C)=O)C1=C/C(=N\S(=O)(=O)c2ccc(C)cc2)c2ccccc2C1=O (stereo unspecified)	3.81 µM
O=C(NNC(=S)Nc1ccc(Cl)cc1)c1ccccc1OC(F)F	4.44 µM
O=C(NNC(=S)Nc1cccc(C(F)(F)F)c1)c1ccc(Cl)cc1Cl	8.13 µM

Compound	IC50
c1ccc(Nc2cccc(Nc3ccccc3)c2)cc1	5.02 µM
CCOC(=O)c1c(OCC)[nH]c2c1cc(O)c1ccccc12	8.27 µM
Cc1ccc(NC(=O)c2cc(S(=O)(=O)NCCC3=CCCCC3)ccc2F)cc1	12.3 µM
Cc1cc([N+](=O)[O-])ccc1-c1ccc(C2Nc3ccccc3C(=O)N2O)o1 (stereo unspecified)	9.76 µM
COC(=O)c1c(N2C(=O)CC(Sc3ccccc3C(=O)O)C2=O)sc2c1CCCC2 (stereo unspecified)	1.49 µM
COc1ccc(Cl)cc1NC(=O)CN(C)C(=O)C12CC3CC(CC(Cl)(C3)C1)C2	12 µM
CN=C(Nc1cc(Cl)ccc1Cl)SC1CC(=O)N(c2ccc(C(=O)OC)cc2)C1=O (stereo unspecified)	6.33 µM
COc1cc(N=c2ssnc2Cl)c(OC)cc1Cl	3.15 µM
CC(C)(C)OC(=O)N[C@@H](Cc1ccccc1)c1nnc(S(=O)(=O)Cc2cccc(F)c2)o1	1.19 µM
COc1ccc(C(=O)O/N=C(\N)c2ccc(Cl)cc2)cc1	4.07 µM
Nc1nc(N)c(C=Nc2ccc(Br)cc2)c(Nc2ccc(Br)cc2)n1	10.8 µM
CCOC(=O)c1ccc(N2C(=O)C=CC2=O)cc1	0.41 µM
Cc1ccc(NC(=S)Nc2ccc(Cl)c(Cl)c2)c(OC(F)F)c1	9.07 µM
COc1ccc(/C(N)=N/OC(=O)c2ccc3c(c2)OCO3)cc1	4.94 µM
O=C1C2C3C=CC(CO)(O3)C2C(=O)N1c1ccccc1-c1ccccc1 (stereo unspecified)	1.27 µM
Fc1c(F)c(C(F)(F)F)c(F)c(F)c1N/N=C\c1cccs1	4 µM
CC1(CC(=O)N/N=C/c2ccc(OCc3ccc(Cl)cc3Cl)cc2)OCCCO1	2.94 µM
Clc1ccccc1OCc1nnc(-c2ccccc2Br)o1	16.6 µM
N/C(=N\OC(=O)c1ccc(Cl)cc1)c1ccc(Cl)cc1	> 100 µM (inactive)
CC(C)Nc1nnc(Sc2ccc(Cl)cc2[N+](=O)[O-])s1	2.28 µM
CCCOc1ccccc1NC(=O)/C=C/C(N)=O	0.87 µM
O=C(OCn1ncc(Br)c(Br)c1=O)c1ccc(F)cc1	1.15 µM
CC(=O)c1ccc(NC(=S)NC(C)c2ccc(Cl)cc2Cl)cc1 (stereo unspecified)	9.11 µM
CCCOc1ccc(N2C(=O)CC(N3CCC(O)(c4cccc(C(F)(F)F)c4)CC3)C2=O)cc1 (stereo unspecified)	3.95 µM

Compound	IC50
O=C1CS(=O)(=O)N(Cc2cccc(F)c2)c2ccc(Br)cc21	4.69 µM
CC(C)CN(CC(C)C)C(=S)Nc1ccc(Cl)cc1	11 µM
COc1ccc(C(=O)O/N=C(\N)Cc2ccc(Cl)c(Cl)c2)cc1OC	0.8 µM
Cn1c(NCCCO)nc2c(c1=O)C1(CCCCC1)Cc1ccccc1-2	6.86 µM
O=C(NC(=S)Nc1ccccc1N1CCCC1)c1ccc([N+](=O)[O-])cc1	8.53 µM
O=S(=O)(CCN(CCS(=O)(=O)C(F)(F)F)CC1CCCO1)C(F)(F)F (stereo unspecified)	5.4 µM
Clc1ccc(CNc2nc(CN3CCOCC3)nc3scc(-c4ccccc4)c23)cc1	4.96 µM
CCOC(=O)c1ccc(N=c2ssnc2Cl)cc1	1.87 µM
Nc1nc(-c2ccc(Br)cc2)cs1	10.4 µM
Cc1ccc(CNC(=O)c2ccc(Cn3nc(C)c(Cl)c3C)o2)cc1	10.1 µM
Cc1ccc(F)c([C@H]2[C@@H]3C=CCC[C@@]3(C)C(=O)N2Cc2ccccc2)c1	7.6 µM
CCN(CC)C1CC(=O)N(c2cccc(Cl)c2)C1=O (stereo unspecified)	1.74 µM
O=C(NC(=S)NNC(=O)c1ccccc1[N+](=O)[O-])c1ccc(Br)cc1	6.64 µM
COc1ccc(C(=O)O/N=C(\N)c2ccccc2Cl)cc1OC	9.27 µM
Cc1cccc(NC(=S)N/N=C2/CCCCc3ccccc32)c1	2.28 µM
O=[N+]([O-])c1ccccc1N/N=C/c1c[nH]c2ccccc12	5.11 µM
COc1ccc(-n2cc(-c3ccccc3)c3c(=S)nc[nH]c32)cc1	> 100 µM (inactive)
Cc1ccc(F)c([C@H]2C3C=CCC(c4ccccc4)C3C(=O)N2Cc2ccccc2)c1 (stereo partly specified)	6.99 µM
O=C(c1ccc2c3n(nc2c1)-c1ccccc1CO3)N1CCCCC1	8.99 µM
N/C(=N\OC(=O)c1ccc(F)cc1)c1ccc(Br)cc1	> 100 µM (inactive)
CN(CCCC(=O)O)c1ccc(N=Nc2ccc([N+](=O)[O-])cc2)cc1	14.5 µM
CCOC(=O)/C=C/C(=O)Nc1cccc([N+](=O)[O-])c1	1.9 µM
C=CC(=O)Oc1ccc(N2Cc3ccccc3C2=O)cc1	2.89 µM
CC(C)C(=O)N1CCN(c2ccccc2NC(=O)c2ccc([N+](=O)[O-])o2)CC1	1.82 µM
